Consider three molecules from patent publication US9012518B2, “Compositions and methods of delivery of pharmacological agents” (Abraxis BioScience, LLC, priority 2002, dated 2015).

Where a name gives a salt, the structure may show the parent alone.

The conditions of data set [1]: cited from earlier work.
For data set [2] the following is noted: 22.5° C.; cited from earlier work.
In data set [3] the target is immobilized albumin (Homo sapiens, UniProt P02768). Kind of data set: Competition of added albumin with binding of fluorescent paclitaxel to immobilized albumin. To be noted: similar effect with binding to endothelial cells. From the text:
Albumin was immobilized on a microtiter plate. […] Thus invention compositions having lower amounts of albumin are preferred.

Chain of immobilized albumin (P02768 25-609): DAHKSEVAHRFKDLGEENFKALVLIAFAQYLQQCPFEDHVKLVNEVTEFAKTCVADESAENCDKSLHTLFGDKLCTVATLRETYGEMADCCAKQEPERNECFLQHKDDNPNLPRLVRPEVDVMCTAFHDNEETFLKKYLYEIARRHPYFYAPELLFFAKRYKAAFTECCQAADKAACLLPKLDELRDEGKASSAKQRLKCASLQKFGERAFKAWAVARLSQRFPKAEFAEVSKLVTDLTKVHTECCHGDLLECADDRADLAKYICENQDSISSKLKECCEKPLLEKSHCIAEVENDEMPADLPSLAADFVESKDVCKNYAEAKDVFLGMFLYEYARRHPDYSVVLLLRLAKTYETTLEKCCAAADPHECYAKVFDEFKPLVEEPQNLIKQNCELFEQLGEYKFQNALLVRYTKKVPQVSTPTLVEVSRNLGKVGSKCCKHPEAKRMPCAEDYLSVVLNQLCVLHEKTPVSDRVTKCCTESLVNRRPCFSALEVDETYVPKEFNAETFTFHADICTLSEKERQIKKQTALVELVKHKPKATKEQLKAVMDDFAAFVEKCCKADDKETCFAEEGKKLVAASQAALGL

Take `CC(=O)N(O)CCCCCNC(=O)CCC(=O)N(O)CCCCCNC(=O)CCC(=O)N(O)CCCCCN` [Deferoxamine mesylate USP, N-[5-[3-[(5-aminopentyl)-hydroxycarbamoyl]-propion-amido]pentyl]-3[[5-((N-hydroxyacetamido)pentyl]-carbamoyl]propionohydroxamic acid monomethanesulfonate (salt)]: the solubility in water result in data set [1] is listed as “freely soluble in water”. On to `CC(C)c1cccc(C(C)C)c1O` [propofol, 2,6-diisopropylphenol], for which the “maximum solubility in water” value in data set [2] is 1.0 ± 0.02 µM. As for albumin, in data set [3], the “binding of fluorescent paclitaxel to immobilized albumin as added albumin increased” value is recorded as “a corresponding decrease in binding”.
